Legend:
DMS 114 tumor xenograft = test: lung cancer (SCLC) xenograft model; assay type: in vivo, BALB/c Nude Mice; settings: DMS 114 xenograft; 600 mg/kg IP; hypoxic status confirmed
Procedure: All animal models were established as xenograft model in BALB/c Nude Mice (6-8 weeks old, 17-23 grams, maintained in standard conditions and diet), following approved IACUC (Institutional Animal Care and Use Committees) protocols. Cpd.11 Ms was formulated using 2% dimethyl sulfoxide (DMSO in water for injection, starting from a Cpd.11 Ms main preparation (100-60 mg/ml in 2% DMSO in water for injection).
After tumor cell inoculation, the animals were checked daily for morbidity and mortality. Before commencement of treatment all animals were weighed and the tumor volumes were measured using a caliper. The treatments were started when the mean tumor size reached approx. 250 mm^3. […] At the time of routine monitoring, the animals were checked for any effects of tumor growth and treatments on normal behavior such as mobility, visual estimation of food and water consumption, body weight gain/loss (body weights were measured daily during the 5-day treatment and thrice weekly after treatment), eye/hair matting and any other abnormal effect. Death and observed clinical signs were recorded on the basis of the numbers of animals within each subset. […] The surrogate endpoint for survival was calculated and indicated as TVx4 (initial tumor volume times 4). […] All data were analyzed in SPSS (Statistical Product and Service Solutions) version 18.0 (IBM, Armonk, NY, U.S.). […]

[1] = system: panel of cancer cell lines; test: cytotoxicity across the tested cancer cell lines (summary statements); assay type: cell-based, human
Procedure: The IC50 values were obtained using the resazurin-based potency assay under anoxic (<0.01% O2) and/or normoxic conditions (21% O2). The hypoxia cytotoxicity ratio (HCR) is calculated as the ratio of IC50 value […] (HCR=IC50 normoxia/IC50 anoxia).
For anoxic condition, the complete medium for each cell line (25 ml in a T25 or 80 ml in a T80) was equilibrated in the anoxic chamber 48 h before use to allow an as large as possible interchange between media and atmosphere, agitating the flask once a day and just before use. The 96-well plates for cell seeding and the 96-well plates for preparation of a mother plate containing the compound to be tested (e.g. Cpd.11 Ms) at appropriate concentrations as well as disposable reagent reservoirs and pipet tips that are required for cell seeding under anoxic conditions were placed in anoxia at least 72 h before use. […]
Cell seeding was performed starting from a cell suspension (70% confluent flasks of cells). Appropriate cell numbers/volumes were used at the pre-determined cell density (typically 100 μl/well) as determined by performing a growth curve experiment were calculated. […]

CCN1CCN(C(=O)c2cc(N(CCBr)CCOS(C)(=O)=O)c(S(C)(=O)=O)cc2[N+](=O)[O-])CC1.CS(=O)(=O)O [Cpd.11 Ms, 4-(5-((2-bromoethyl) (2-((methylsulfonyl)oxy)ethyl)amino)-4-(methylsulfonyl)-2-nitrobenzoyl)-1-ethylpiperazin-1-ium methanesulfonate]
Anti-tumor effect (DMS 114 tumor xenograft): Clear impact,
hypoxic cytotoxic ratio ([1]; across cell lines): ≥ 10
cytotoxicity against cancer cell lines resistant to cisplatin and/or chlorambucil ([1]; pre-clinical models): highly cytotoxic

— US12708620B2, “Prodrugs and medical uses thereof” (priority 2018, dated 2026)
